Results: patent US5436246A, “Serotonin receptor agents” (priority 1993, dated 1995)
Structures can show the parent of a compound that is named as a salt. Where two headings read alike, the source gives them in different places.

How the values were obtained:
[1] = molecular target: T1, 5HT1D receptor (Bos taurus, UniProt F1MGM3); assay: 5HT1D receptor binding affinity (procedure of Peroutka et al.)
T1 construct: from tissue
Protocol: The compounds affinity for the 5HT1D site was determined by the binding procedure of Peroutka et al as reported in European Journal of Pharmacology, Vol. 163 at pages 133-166 (1989). […] Where multiple determinations of the binding affinity have been performed, the average is given followed by the number of determinations in parentheses.

[2] = acetic acid writhing test (analgesic effect); type: in vivo; conditions: Mus musculus, sc, 0.5 h; mice, subcutaneous, 30 minutes before acetic acid i.p. (0.25% v/v, 0.4 ml)
Protocol: Eide, Neuropharm. 31, 541 (1992). […] One such model is the acetic acid writhing test. In this test, a group containing from 5-10 mice are administered the test compound subcutaneously. Thirty minutes after administration of the test compound, the mice are administered acetic acid intraperitoneally (0.25 % v/v, 0.4 ml). The mice are then observed for squirming and writhing. Analgesics block this squirming and writhing.

[3] = molecular target: T2, 5HT1A receptor (Rattus norvegicus, UniProt P19327); assay: 5HT1A receptor binding affinity (procedure of Gozlan et al.)
T2 sequence (P19327 1-422): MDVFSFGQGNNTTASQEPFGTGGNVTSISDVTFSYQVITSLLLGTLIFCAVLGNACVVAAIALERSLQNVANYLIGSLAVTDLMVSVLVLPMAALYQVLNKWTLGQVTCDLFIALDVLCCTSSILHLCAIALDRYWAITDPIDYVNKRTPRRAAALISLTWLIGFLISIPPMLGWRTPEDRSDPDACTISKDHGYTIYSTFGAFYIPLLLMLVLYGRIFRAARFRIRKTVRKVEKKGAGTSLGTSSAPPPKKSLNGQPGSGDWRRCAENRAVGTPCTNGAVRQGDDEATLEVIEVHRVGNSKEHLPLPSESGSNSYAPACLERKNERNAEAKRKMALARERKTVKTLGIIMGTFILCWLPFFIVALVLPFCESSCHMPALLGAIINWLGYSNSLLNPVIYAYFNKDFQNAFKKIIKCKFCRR
Protocol: In the following examples, the compounds binding affinity for both the 5HT1A receptor and 5HT1D receptors is reported. The compounds affinity for the 5HT1D site was determined by the binding procedure of Peroutka et al as reported in European Journal of Pharmacology, Vol. 163 at pages 133-166 (1989). The compounds affinity for the 5HT1A receptor was determined by the procedure of Gozlan et al., as reported in Nature, Volume 305, at pages 140-142 (1983). Where multiple determinations of the binding affinity have been performed, the average is given followed by the number of determinations in parentheses. Also, the PA2 value for the saphenous vein preparation as described in this application is given, followed by the intrinsic (agonist) activity in parentheses, expressed as a percentage. [drawing 10] […]

[4] = molecular target: 5-HT1D receptors (Canis lupus familiaris, UniProt P79250); parameters: species or system dog (canine); conditions: for Emax: dog, read-out: intrinsic (agonist) activity, saphenous vein preparation
Protocol: In the following examples, the compounds binding affinity for both the 5HT1A receptor and 5HT1D receptors is reported. The compounds affinity for the 5HT1D site was determined by the binding procedure of Peroutka et al as reported in European Journal of Pharmacology, Vol. 163 at pages 133-166 (1989). The compounds affinity for the 5HT1A receptor was determined by the procedure of Gozlan et al., as reported in Nature, Volume 305, at pages 140-142 (1983). Where multiple determinations of the binding affinity have been performed, the average is given followed by the number of determinations in parentheses. Also, the PA2 value for the saphenous vein preparation as described in this application is given, followed by the intrinsic (agonist) activity in parentheses, expressed as a percentage. [drawing 10]
We have used canine saphenous vein for studying 5-HT1D receptors which is similar, although not totally identical, to human coronary 5-HT1D receptors (see Humphrey, P. P. A., Feniuk, W., Perren, M. J., Connor, H. E., Oxford, A. W., Coates, I. H. and Butina, D.: GR43175, a selective agonist for the 5-HT1 -like receptor in dog isolated saphenous vein, Br. J. Pharmacol. 94:1123-1132, 1988; Kaumann, A. J.: Human heart 5-HT receptors, Second international symposium on serotonin, from cell biology to pharmacology and therapeutics, Houston, Sep. 15-18, 1992).
Mongrel dogs weighing 12-18 kg were killed by an intravenous injection of an overdose of sodium pentobarbitol. Saphenous veins were isolated, removed, cleaned of surrounding connective tissue, and cut into helical strips in a dish containing Krebs-Henseleit solution with the following composition in mM: NaCl, 110.0; KCl, 4.8; CaCl2, 2.5; KH2 PO4, 1.2; EDTA(NaEDTA), 0.027; and was constantly bubbled with 95% O2 -5% CO2. Unless otherwise specified, the endothelium of the […] was removed by rubbing with a metal rod. The intactness or absence of functional endothelium was checked by the presence or absence of a relaxant effect of acetycholine (10^-5 M) in phenylephrine-contracted tissues (see Furchgott, R. F. and Zawadzki, J. V.: The obligatory role of endothelial cells in the relaxtion of arterial smooth muscle by acetycholine, Nature 288:373-376, 1980). Each muscle strip (3×30 mm) was set up in a tissue bath at 37° C. and loaded with 2 gram tension. Contractility of the tissues was measured isometrically with a Grass FT03 force-displacement transducer and recorded on a Strip chart recorder. The tissues were allowed to stabilize for 2 hours before the experiment was started, during which time they were washed repeatedly. Tissues were contracted with 3.162×10^-6 M phenylephrine and 40 mM KCl, which produced 60-70% of their maximum contractile responses, to condition the tissue. 5-HT dose response experiment was conducted. Test compounds were then incubated with the tissue before a second 5-HT dose response experiment was performed. Data are expressed as the pA2 value, the negative logarithm of the molar concentration of antagonist which produced a 2 fold shift in ED50 values of 5-HT dose response curves (see Van Rossum, J. M.: Cumulative dose-response curve: Technique for the making of dose-response curves in isolated organs and the evaluation of drug parameters, Arch. Int. Pharmacodyn. Ther. 143:299-330, 1963).

[5] = negative log molar concentration of antagonist producing 2 fold shift in ED50 of 5-HT dose response curves, read-out: pA2 (blocking of 5-HT1-like-mediated contraction in canine saphenous vein) (converted)
[6] = average of multiple determinations where number in parentheses is given, read-out: IC50 (5HT1D Binding Affinity)
[7] = average of multiple determinations where number in parentheses is given, read-out: IC50 (5HT1A Binding Affinity)
[8] = canine saphenous vein, printed in parentheses after pA2

Sequence of 5-HT1D receptors (P79250 whole entry): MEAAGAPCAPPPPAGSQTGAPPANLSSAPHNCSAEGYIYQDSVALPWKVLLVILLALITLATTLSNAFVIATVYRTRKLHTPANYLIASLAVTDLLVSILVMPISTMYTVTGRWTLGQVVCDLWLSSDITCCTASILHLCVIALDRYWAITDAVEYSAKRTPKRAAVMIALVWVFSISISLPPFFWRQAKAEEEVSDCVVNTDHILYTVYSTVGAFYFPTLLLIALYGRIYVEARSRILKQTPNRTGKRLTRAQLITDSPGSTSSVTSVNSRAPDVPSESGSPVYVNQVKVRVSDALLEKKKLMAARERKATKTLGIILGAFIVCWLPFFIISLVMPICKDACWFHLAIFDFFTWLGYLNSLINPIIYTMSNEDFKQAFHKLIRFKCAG
T1 sequence (F1MGM3 1-403): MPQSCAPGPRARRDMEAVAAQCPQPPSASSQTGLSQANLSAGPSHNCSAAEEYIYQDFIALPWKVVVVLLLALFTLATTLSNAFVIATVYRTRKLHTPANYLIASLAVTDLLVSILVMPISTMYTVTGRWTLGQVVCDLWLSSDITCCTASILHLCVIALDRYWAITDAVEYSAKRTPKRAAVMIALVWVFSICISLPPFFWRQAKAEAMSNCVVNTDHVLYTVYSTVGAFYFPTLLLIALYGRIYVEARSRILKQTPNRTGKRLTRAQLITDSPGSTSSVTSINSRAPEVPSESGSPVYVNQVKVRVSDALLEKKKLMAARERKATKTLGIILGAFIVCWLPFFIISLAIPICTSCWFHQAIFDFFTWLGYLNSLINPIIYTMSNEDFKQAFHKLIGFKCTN

Structure (SMILES)	IC50 [1] [nM]	IC50 [3] [nM]	Emax [4] [%]	Kb [4, 5] [nM]	IC50 [1, 6] [nM]	IC50 [3, 7] [nM]	also measured
Cl.OCc1cc2c(N3CCN(CCc4ccccc4)CC3)cccc2s1 [Example 7, 4[4(2-phenylethyl)-1-piperazinyl]-benzo[b]thiophene-2-methanol monohydrochloride]	2.4	0.6					ED50 [2]: 0.61 mg/kg
CNC(=O)c1cc2c(N3CCN(CCc4ccccc4)CC3)cccc2s1 [Example 10, 4-[4-(2-phenylethyl)-1-piperazinyl]-benzo[b]thiophene-2-(N-methyl)-carboxamide monohydrochloride]	1	1	25	0.0251			
CN(C)C(=O)c1cc2c(N3CCN(CCc4ccccc4)CC3)cccc2s1 [Example 11, 4-[4-(2-phenylethyl)-1-piperazinyl]-benzo[b]thiophene-2-(N,N-dimethyl)-carboxamide monohydrochloride]				0.977	3	2.3	Emax [4, 8]: 2%
O=C(Nc1ccccc1)c1cc2c(N3CCN(CCc4ccccc4)CC3)cccc2s1 [Example 12, 4-[4-(2-phenylethyl)-1-piperazinyl]-benzo[b]thiophene2-(N-phenyl)-carboxamide monohydrochloride]				18.2	220	85	Emax [4, 8]: 0%
O=C(NCc1ccccc1)c1cc2c(N3CCN(CCc4ccccc4)CC3)cccc2s1 [Example 13, 4-[4-(2-phenylethyl)-1-piperazinyl]-benzo[b]thiophene-2-(N-phenylmethyl)-carboxamide monohydrochloride]				1.74	31	27	Emax [4, 8]: 0%
NC(=O)c1cc2c(N3CCN(CCCc4ccccc4)CC3)cccc2s1 [Example 17, 4-[4-(3-phenylpropyl)-1-piperazinyl]-benzo[b]thiophene-2-carboxamide monohydrochloride]				16.6	4.5	1	
CCOC(=O)c1cc2c(N3CCN(CCc4ccc(Cl)cc4)CC3)cccc2s1 [Example 18, ethyl-4-[4-[2-(4-chlorophenyl)ethyl]-1-piperazinyl]-benzo[b]thiophene-2-carboxylate monohydrochloride]				309	411	53	
N#Cc1cc2c(N3CCN(CCc4ccc(Cl)cc4)CC3)cccc2s1 [Example 20, 4-[4-[2-(4-chlorophenyl)ethyl]-1-piperazinyl]-benzo[b]thiophene-2-nitrile monohydrochloride]	31	13	34				Kb [4]: 42.7 nM
CCOC(=O)c1cc2c(N3CCN(CCc4ccc(F)cc4)CC3)cccc2s1 [Example 22, ethyl-4-[4-[2-(4-fluorophenyl)ethyl]-1-piperazinyl]-benzo[b]thiophene-2-carboxylate monohydrochloride]			0	29.5	120	7.4	
N#Cc1cc2c(N3CCN(CCc4ccc(F)cc4)CC3)cccc2s1 [Example 24, 4-[4-[2-(4-fluorophenyl)ethyl]-1-piperazinyl]-benzo[b]thiophene-2-nitrile monohydrochloride]	21	10	9				Kb [4]: 6.76 nM
CCCN1CCN(c2cccc3sc(C(=O)OCC)cc23)CC1 [Example 34, Ethyl 4-[(4-propyl)-1-piperazinyl]benzo[b]thiophene-2-carboxylate hydrochloride]			12	166	416	104	
COCc1cc2c(N3CCN(CCc4ccccc4)CC3)cccc2s1 [Example 37, 4-[4-(2-phenylethyl)-1-piperazinyl]-benzo[b]thiophene-2-(O-methyl)-methanol hydrochloride]	9	5	0	9.33			
CON(C)C(=O)c1cc2c(N3CCN(CCc4ccccc4)CC3)cccc2s1 [Example 40, 4-[4-(2-phenylethyl)-1-piperazinyl]-benzo[b]thiophene-2-(N-methyl-N-methoxy)-carboxamide hydrochloride]				3.16	16	2.4	Emax [4, 8]: 3%
CC(C)(O)c1cc2c(N3CCN(CCc4ccccc4)CC3)cccc2s1 [Example 41, 2-[4-[4-(2-phenylethyl)-1-piperazinyl]benzo[b]thiophene-2-]-(2-propanol) hydrochloride hemihydrate]	16	4	16	36.3			
CC(=O)c1cc2c(N3CCN(CCc4ccccc4)CC3)cccc2s1 [Example 42, 1-[4-(4-phenethyl-piperazin-1-yl)-benzo[b]thiophen-2-yl]ethanone hydrochloride]	22		1				Kb [4]: 13.5 nM
COCc1cc2c(N3CCN(CCc4ccc(F)cc4)CC3)cccc2s1 [Example 46, 4-[4-(2-(4-fluorophenyl)-ethyl)-1-piperazinyl]benzo [b]thiophene 2-methoxymethyl hydrochloride, 0.2 hydrate]			5				IC50 ([1]; read-out: IC50 (5HT1D Binding Affinity), average of multiple determinations where number in parentheses is given): 17 nM; IC50 ([3]; read-out: IC50 (5HT1A Binding Affinity), average of multiple determinations where number in parentheses is given): 4 nM; pA2 (blocking of 5-HT1-like-mediated contraction in canine saphenous vein) ([4]; negative log molar concentration of antagonist producing 2 fold shift in ED50 of 5-HT dose response curves): 7.98
O=C(c1cc2c(N3CCN(CCc4ccccc4)CC3)cccc2s1)N1CCCCC1 [Example 56, [4-(4-phenethyl-piperazin-1-yl)-benzo[b]thiophen-2-yl]-piperidin-1-yl methanone hydrochloride]			2	112	135		
O=C(c1cc2c(N3CCN(CCc4ccccc4)CC3)cccc2s1)N1CCCC1 [Example 57, [4-(4-phenethyl-piperazin-1-yl)-benzo[b]thiophen-2-yl]-pyrrolidin-1-yl methanone hydrochloride]			0	4.27	25		
